Data as given in US20250034159A1, “INHIBITORS OF EPIDERMAL GROWTH FACTOR RECEPTOR” (ORIC Pharmaceuticals, Inc., priority 2021, published 2025).
Like-named read-outs stand apart in the source and are kept apart here.

How the values were obtained:
[1] = tested on: Ba/F3_EGFR WT cells; assay: Biological Activity Assay D: BaF3 cell proliferation assay, EGFR wild-type (BaF3 WT); type: cell-based; settings: Ba/F3 EGFR, read-out: BaF3 WT IC50
Method: (§1) One frozen vial of cells should be thawed into one T25 flask in 10 mL media. Keep the flask upright in the incubator.
(§2) Method: One frozen vial of cells was thawed into one T25 flask in 10 mL media and the flask was kept upright in the incubator. Cells were split 1:10 every two to three days when cells reached confluency of around 1×10^6 cells/mL. Bravo protocol files were used with Greiner 384-well plates for all steps of compound preparation, cell plating and compound addition. […] 16 μL of DMSO were added (for compounds starting at 20 μM) or 28 μL DMSO (for compounds starting at 5 μM) to 96-well V-bottom polypropylene plate: wells 1A-1H (8 compounds/plate). […] 20 μL DMSO were added to the remainder of the wells (columns 2-12) in the 96-well V-bottom plate. A Bravo liquid handler was used to make 1:3 serial dilutions from columns 1 to 11 (12 remains as DMSO only) to prepare the DMSO dilution plate. 144 μL media were added to each well of a new 96-well V-bottom polypropylene plate to prepare the intermediate dilution plate. A Bravo or 96-head Integra liquid handler was used to add and mix 6 μL of test compound from the DMSO dilution plate to the intermediate dilution plate. (1:25 dilution). Cells were transferred from a flask into a 50 mL conical, vortex gently and the number of cells were counted, with a target cell number of about 1×10^6 cells per mL. The cells were diluted in culture medium in 50 mL conical or T25 flask, and the cell suspension was added to BRAVO reservoir and then use Bravo protocol to plate the appropriate number of cells shown below in 36 μl of medium per well as follows: Ba/F3-WT-EGFR 2000 cells per well of a 384 well plate; Ba/F3-LR/CS-EGFR 2000 cells per well of a 384 well plate; and Ba/F3-d19/CS-EGFR 1500 cells per well of a 384 well plate. An extra 10 mL of dead volume was utilized in each reservoir.
(§3) Using a Bravo liquid handler, 4 μl of test compound solution was added per well from the intermediate dilution plate to plated cells (1:10 dilution from the intermediate plate, final compound dilution 1:250 and final DMSO concentration per well is 0.4%). Using the 96 BRAVO Head, 25 μl were aspirated from the intermediate dilution plate and 4 μl each were dispensed into 4 wells (square pattern) in the 384-well plate. Any remaining test compound is dispensed into a secondary plate to prevent cross contamination of cells in the intermediate compound plate. After the compounds were added, the plate was shaken at 600 rpm gently for 60 see, and the plates were incubated in a tissue culture incubator, 37° C., 5% CO2, for ˜ 72 hours. After incubation, CTG 2.0 reagent was allowed to equilibrate to room temperature (˜3 hours) and cells to reach room temperature (˜10-15 minutes) and reagent was added to cells (40 μL/well) using a Bravo liquid handler. The plates were shaken to allow proper mixing (˜5 min) and let settle for 10 minutes and were read on Tecan plate reader using the appropriate luminescence method. Data from plate reader was transferred to an excel file and entered directly into Dotmatics using the protocols under EGFR Project/Cell Proliferation/named: “BaF3_EGFRwt_CP”, “BaF3_EGFR_d19/CS_CP”, “BaF3_EGFR_LR/CS_CP”. Curves were fit with a 4-parameter model and IC50s calculated by the Dotmatics software. DMSO wells were averaged to define the high control (100% growth). The average of the highest concentration of the positive control compound (afatinib) was used to define the 0% growth and used to lock the bottom of the curves. The tops of the curves were not fixed.

[2] = tested on: BaF3_EGFR d19/CS cells; assay: Biological Activity Assay D: BaF3 cell proliferation assay, EGFR exon 19 deletion/C797S (BaF3 d19/CS); type: cell-based; settings: Ba/F3 EGFR, read-out: BaF3 d19/CS IC50
Method: as §1, §2, §3

[3] = tested on: BaF3_EGFR LR/CS cells; assay: Biological Activity Assay D: BaF3 cell proliferation assay, EGFR L858R/C797S mutant (BaF3 LR/CS); type: cell-based; settings: Ba/F3 EGFR, read-out: BaF3 LR/CS IC50
Method: as §1, §2, §3

[4] = biological target: recombinant human EGFR exon 19 deletion/C797S double mutant protein (Homo sapiens (Human), UniProt P00533, C797S/DEL746-750); assay: Biological Activity Assay C: biochemical assay against EGFR exon 19 deletion/C797S protein (EGFR d19/CS)
Sequence of recombinant human EGFR exon 19 deletion/C797S double mutant protein (P00533 other isoform, or with tags, fused parts or gaps C797S/del 1-668/del 746-750 limits assumed): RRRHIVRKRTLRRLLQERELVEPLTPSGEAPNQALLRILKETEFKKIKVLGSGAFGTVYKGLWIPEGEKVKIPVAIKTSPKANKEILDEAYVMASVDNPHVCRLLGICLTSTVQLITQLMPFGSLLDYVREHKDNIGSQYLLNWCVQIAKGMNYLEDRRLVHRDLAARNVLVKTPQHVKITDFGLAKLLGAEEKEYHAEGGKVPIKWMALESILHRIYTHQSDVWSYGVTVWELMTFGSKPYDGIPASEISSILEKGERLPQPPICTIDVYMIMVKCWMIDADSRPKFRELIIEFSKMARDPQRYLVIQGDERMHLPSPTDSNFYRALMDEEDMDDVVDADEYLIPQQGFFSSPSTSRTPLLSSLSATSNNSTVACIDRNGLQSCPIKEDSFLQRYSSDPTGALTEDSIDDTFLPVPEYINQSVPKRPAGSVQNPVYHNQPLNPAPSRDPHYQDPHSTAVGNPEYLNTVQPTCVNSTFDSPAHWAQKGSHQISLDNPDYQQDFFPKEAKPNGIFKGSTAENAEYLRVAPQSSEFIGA
Method: In Row A of a 384-well polypropylene plate, was added 48 μL of DMSO. In wells A1 and A24, were added 12 μL of DMSO. […] To a well in Row A were added 12 μL of each 10 mM test compound stock (100% DMSO). […] The final intermediate dilution plate contained 4×16-point compound serial dilutions in assay buffer. The DMSO concentration was 10%. The intermediate compound dilution plate was transferred to the Bravo and the “5 uL dispense into ARP.pro” protocol was run. To the black low volume assay ready plates, were added 5 μL of 40 uM Phosphosens peptide sensor/4 mM ATP working solution to each well. […] To column 24, was added 10 μL of assay buffer. The final DMSO concentration was 2.5%. […] The plates were sealed with the TopSeal-A Plus plate seals. […] Set for 90 cycles with 120 second interval. […] The slope of each curve was constructed using Dotmatics in each well, and each IC50s was calculated using a 4-parameter fit model.

[5] = Ba/F3_EGFR WT cells, ~72 hours, CellTiter-Glo
[6] = BaF3_EGFR d19/CS cells, ~72 hours, CellTiter-Glo
[7] = BaF3_EGFR LR/CS cells, ~72 hours, CellTiter-Glo

| Compound | IC50 [1, 5] [nM] | IC50 [2, 6] [nM] | IC50 [3, 7] [nM] | IC50 [4] [nM] | IC50 ([1]; 72 h) [nM] | IC50 ([2]; 72 h) [nM] | IC50 ([3]; 72 h) [nM] |
| --- | --- | --- | --- | --- | --- | --- | --- |
| O=S1(=O)CCC[C@H](Cn2cc(-c3ncnc4oc(-c5ccccc5)cc34)c(-c3ccc(F)cc3)n2)C1 (single isomer, unassigned) [Example 125] | 741 | 52.1 | 11.8 | 0.21 |  |  |  |
| O=S1(=O)CC(n2cc(-c3ncnc4oc(-c5ncccn5)cc34)c(-c3ccc(F)cc3)n2)C1 [Example 195, 3-{3-(4-fluorophenyl)-4-[6-(pyrimidin-2-yl)furo[2,3-d]pyrimidin-4-yl]-1H-pyrazol-1-yl}-1λ6-thietane-1,1-dione] | 6000 | 365 | 799 | 6.89 |  |  |  |
| O=S1(=O)CC(n2cc(-c3ncnc4oc(-c5c[nH]cn5)cc34)c(-c3ccc(F)cc3)n2)C1 [Example 216, 3-{3-(4-fluorophenyl)-4-[6-(1H-imidazol-4-yl)furo[2,3-d]pyrimidin-4-yl]-1H-pyrazol-1-yl}-16-thietane-1,1-dione] | 2130 | 58.5 | 31.1 | 0.06 |  |  |  |
| CC(C)(O)Cn1cc(-c2ncnc3oc(-c4cccc(F)n4)cc23)c(-c2ccc(F)cc2)n1 [Example 281, 1-{3-(4-fluorophenyl)-4-[6-(6-fluoropyridin-2-yl)furo[2,3-d]pyrimidin-4-yl]-1H-pyrazol-1-yl}-2-methylpropan-2-ol] |  |  |  | 0.425 | 1840 | 57.1 | 80.7 |
| Cn1cnc(-c2cc3c(-c4cn(CCC#N)nc4-c4ccc(F)cc4)ncnc3o2)c1 [Example 265, 3-{3-(4-fluorophenyl)-4-[6-(1-methyl-1H-imidazol-4-yl)furo[2,3-d]pyrimidin-4-yl]-1H-pyrazol-1-yl}propanenitrile] | 69.9 | 1.46 | 1.43 | 0.078 |  |  |  |
| Fc1ccc(-c2nn([C@H]3CCCCC3(F)F)cc2-c2ncnc3oc(-c4ccccc4)cc23)cc1 (single isomer, unassigned) [Example 233] | 6040 | 414 | 228 | 4.09 |  |  |  |
| Fc1ccc(-c2nn([C@@H]3C[C@H]4CC[C@@H](C3)O4)cc2-c2ncnc3oc(-c4ccccc4)cc23)cc1 [Example 186, 4-{3-(4-fluorophenyl)-1-[(1R,3s,5S)-8-oxabicyclo[3.2.1]octan-3-yl]-1H-pyrazol-4-yl}-6-phenylfuro[2,3-d]pyrimidine] | 4450 | 348 | 186 | 0.63 |  |  |  |

Further lines, with some results ahead:

| IC50 [1, 5] [nM] | IC50 [2, 6] [nM] | IC50 [3, 7] [nM] | IC50 [4] [nM] | Compound | IC50 ([1]; 72 h) [nM] | IC50 ([2]; 72 h) [nM] | IC50 ([3]; 72 h) [nM] |
| --- | --- | --- | --- | --- | --- | --- | --- |
| > 20000 | 893 | 2200 | 21.6 | Cc1noc(-c2cc3c(-c4cn(C5CS(=O)(=O)C5)nc4-c4ccc(F)cc4)ncnc3o2)n1 [Example 223, 3-{3-(4-fluorophenyl)-4-[6-(3-methyl-1,2,4-oxadiazol-5-yl)furo[2,3-d]pyrimidin-4-yl]-1H-pyrazol-1-yl}-1λ6-thietane-1,1-dione] |  |  |  |
| 800 | 28.9 | 17.6 | 0.11 | O=S1(=O)CC(n2cc(-c3ncnc4oc(-c5ccccn5)cc34)c(-c3ccc(F)cc3)n2)C1 [Example 173, 3-{3-(4-fluorophenyl)-4-[6-(pyridin-2-yl)furo[2,3-d]pyrimidin-4-yl]-1H-pyrazol-1-yl}-1λ6-thietane-1,1-dione] |  |  |  |
| 1520 | 131 | 189 | 1.2 | Cc1cccnc1-c1cc2c(-c3cn(C4CS(=O)(=O)C4)nc3-c3ccc(F)cc3)ncnc2o1 [Example 241, 3-{3-(4-fluorophenyl)-4-[6-(3-methylpyridin-2-yl)furo[2,3-d]pyrimidin-4-yl]-1H-pyrazol-1-yl}-1λ6-thietane-1,1-dione] |  |  |  |
| 1250 | 182 | 76.8 | 0.59 | CC1(C)C[C@@H](Cn2cc(-c3ncnc4oc(-c5ccccc5)cc34)c(-c3ccc(F)cc3)n2)O1 (single isomer, unassigned) [Example 222] |  |  |  |
